Legend:
[1] = molecular target: T1, α7-subtype of nicotinic receptors (Rattus norvegicus, UniProt Q05941); assay: biochemical; details: read-out: Inhibition of 3H-α-Bungarotoxine Binding IC50
T1 construct: Cerebral cortices from male Wistar rats (150-250 g) are homogenised; from tissue; host or cells: rat cerebral cortex membrane homogenate
T1 sequence (Q05941 23-502): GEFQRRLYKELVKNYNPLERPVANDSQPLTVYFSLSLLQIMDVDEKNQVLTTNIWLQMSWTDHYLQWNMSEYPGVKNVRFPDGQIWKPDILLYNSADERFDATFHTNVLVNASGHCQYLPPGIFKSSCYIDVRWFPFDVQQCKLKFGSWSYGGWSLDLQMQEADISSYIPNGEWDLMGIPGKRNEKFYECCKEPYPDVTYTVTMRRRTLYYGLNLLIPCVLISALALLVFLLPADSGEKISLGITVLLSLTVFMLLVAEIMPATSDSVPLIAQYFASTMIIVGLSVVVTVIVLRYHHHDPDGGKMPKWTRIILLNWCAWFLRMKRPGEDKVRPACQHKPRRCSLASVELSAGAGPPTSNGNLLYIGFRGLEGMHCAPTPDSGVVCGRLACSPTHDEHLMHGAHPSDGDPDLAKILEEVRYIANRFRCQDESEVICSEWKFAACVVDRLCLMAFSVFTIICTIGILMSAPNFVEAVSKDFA

Compound | melting point [°C] | IC50 [1] [nM]
O=C(O)/C=C/C(=O)O.O=C(Oc1ccc(C#Cc2ccccc2)cc1)N1CCN2CCC1CC2 [Compound A1, 1,4-Diaza-bicyclo[3.2.2]nonane-4-carboxylic acid 4-phenylethynyl-phenyl ester fumaric acid salt] | 160 to 177 | 420
Cl.O=C(Nc1ccc(OC(=O)N2CCN3CCC2CC3)cc1)c1ccccc1 [Compound C1, 1,4-Diaza-bicyclo[3.2.2]nonane-4-carboxylic acid 4-benzoylamino-phenyl ester hydrochloric acid salt] | > 270 | 560
